We go through 15 compounds from patent publication US20250074891A1 (Anaxis Pharma Pty Ltd., priority 2021, published 2025).

pIC50, pKd: −log10 of the molar value.

One assay addresses RIP1 (Homo sapiens (Human), UniProt Q13546). The assay is described as follows: KINOMEscan binding assay, RIP1. To be noted: Table 35.
Another assay addresses RIP3 (Homo sapiens (Human), UniProt Q9Y572). The assay is described as follows: KINOMEscan binding assay, RIP3. To be noted: Table 35. The method, then: (§1) Kinase assays. For most assays, kinase-tagged T7 phage strains were grown in parallel in 24-well blocks in an E. coli host derived from the BL21 strain. E. coli were grown to log-phase and infected with T7 phage from a frozen stock (multiplicity of infection=0.4) and incubated with shaking at 32° C. until lysis (90-150 minutes).
(§2) The Hill Slope was set to −1.

The target of the next assay is MLKL (full length) (Homo sapiens (Human), UniProt Q8NB16). The assay is described as follows: KINOMEscan binding assay, MLKL (full length). The conditions noted are these: Table 35. As to the method:
as §1, §2

Another assay relates to U937 cells. The assay is described as follows: Counter screen: cell viability without TSQ cocktail (off-target effect). The arrangement: species or system human. To be noted: Homo sapiens, U-937, Table 38, read-out: Off-target effect (IC50 cell-based assay). As to the method:
Counter screen: In parallel, all compounds were tested for their ability to affect cell viability. The same U937 cells were treated with compound in DMSO without the TSQ cocktail. This counter screen enabled evaluation of off-target effects. In this case, cell viability was measured by CelltiterGlo.

Assay [1] concerns U937 human histiocytic leukemia cell line. Kind of assay: Cellular assay: inhibition of TSQ induced necroptosis (CellTitre-Glo). To be noted: Homo sapiens, U-937; U937 cells, TSQ cocktail, 48 hours, Table 38; read-out: Inhibition of TSQ-induced necroptosis (IC50 cell-based assay). The method, then:
[…] ASSAY: Screening compounds for inhibition of TSQ induced necroptosis, 384 well plate format.
Cell Line ID: U937 human histiocytic leukemia cell line.
Cell Concentration (cells/well): Final cell density is 20,000 cells per well.
Cell growth medium: HT-RPMI medium+7.4% Fetal Bovine Serum (FBS). Cells are cultured in Corning 150 cm^z tissue culture flasks with vented caps at 37° C./5% CO2.
Incubation: Plates were incubated at 37° C./5% CO2 in a humidified incubator for 48 hours following addition of compounds and death stimuli (TSQ cocktail).
Compound concentration: 36 μM starting concentration, 1:3 dilution, 10 point
DMSO final concentration (% v/v): 0.3%.
Compounds in TSQ cocktail (T: TNF; S: Smac mimetic; Q: Q-VD-OPh) and their final concentrations: • hTNF-Fc (100 ng/ml)—produced by standard procedures as shown in Bossen et al., J Biol Chem, 2006, 281(20), 13964-13971. • Compound A (500 nM)—Smac mimetic, Tetralogic and SYNthesis med chem • Q-VD-OPh (10 μM)—MP Biomedicals
The cellular assay was carried out according to the following steps: • 1. Each well was prepared by sequential addition of: • a. DMSO (control; columns 1-2 and 23-24) or compound in DMSO—addition was performed using acoustic transfer of nl volumes of stock compound to give final test concentrations of 36, 12, 4, 1.3, 0.44, 0.148, 0.049, 0.016, 0.005 and 0.002 μM. All wells were backfilled with DMSO to a final total volume in the well of 100 nl. • b. Following compound/DMSO addition in step (a), 40 μL of cell suspension (5×10^5 cells/mL) was added to provide a final cell concentration of 20,000 cells per well, and • c. Following cell addition in step (b), 10 μL of 5×TSQ cocktail (except to positive controls; […]) was added to each well. • 2. After 48 hours, plate was removed from the 37° C. incubator and equilibrated to room temperature for 45 minutes. • 3. 15 μL of room temperature CellTitre-Glo2™ (Promega™) was added to each well. • 4. Shook plates for 2 minutes (˜600 rpm) and incubated at room temperature for 15 minutes to allow signal to stabilise. • 5. Read luminescence readout on a plate reader.
Percent viability was calculated for each compound according to equation (2):
[formula] • wherein • RawData is the readout of any cell containing a compound of the invention • TA is the total activity provided by the luminescence readout from DMSO only wells (columns 2 and 24)=100% viability • NSA is the non-specific activity provided by DMSO+TSQ wells (columns 1 and 23)=0% viability
Curve fitting: 10-point titration curves are fitted with the 4-parameter logistic nonlinear regression model and the IC50 reported is the inflection point of the curve.
Analysis: Data was loaded into Dotmatics™ and visualised using the Tibco® Spotfire™ software. 10 points titration curves were fitted with the 4-parameter logistic nonlinear regression model and the IC50 reported reflect the inflection point of the curve for curve fitting.
Assay involving the TSQ cocktail (T: TNF; S: Smac mimetic; Q: Q-VD-OPh): TSQ treatment ensures that cells specifically undergo necroptotic cell death. TNF activates the TNF receptor, Smac mimetic directs the signal away from proinflammatory signaling and toward the RIP1/RIP3-mediated cell death pathways, and Q-VD-OPh ensures that the apoptotic response is blocked leaving only the programmed necrosis response. The compounds' activity (solution in DMSO) tested in this TSQ-induced assay was evaluated by determining the number of viable cells in culture by measuring the amount of ATP present as measured by CelltiterGlo.

Sequence of MLKL (full length) (Q8NB16 whole entry): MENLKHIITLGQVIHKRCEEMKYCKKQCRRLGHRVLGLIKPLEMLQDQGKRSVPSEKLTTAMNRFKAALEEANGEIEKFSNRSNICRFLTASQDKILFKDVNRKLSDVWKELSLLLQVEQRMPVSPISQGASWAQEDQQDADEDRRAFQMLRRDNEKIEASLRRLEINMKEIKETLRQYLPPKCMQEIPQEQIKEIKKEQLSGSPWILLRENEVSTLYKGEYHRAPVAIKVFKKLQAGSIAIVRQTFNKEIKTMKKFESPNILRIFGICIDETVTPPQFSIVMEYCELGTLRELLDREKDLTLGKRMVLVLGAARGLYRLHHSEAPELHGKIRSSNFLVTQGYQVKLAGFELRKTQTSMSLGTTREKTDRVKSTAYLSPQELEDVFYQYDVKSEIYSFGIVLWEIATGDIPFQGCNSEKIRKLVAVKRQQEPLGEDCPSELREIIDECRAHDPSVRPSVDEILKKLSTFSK
Sequence of RIP1 (Q13546 whole entry): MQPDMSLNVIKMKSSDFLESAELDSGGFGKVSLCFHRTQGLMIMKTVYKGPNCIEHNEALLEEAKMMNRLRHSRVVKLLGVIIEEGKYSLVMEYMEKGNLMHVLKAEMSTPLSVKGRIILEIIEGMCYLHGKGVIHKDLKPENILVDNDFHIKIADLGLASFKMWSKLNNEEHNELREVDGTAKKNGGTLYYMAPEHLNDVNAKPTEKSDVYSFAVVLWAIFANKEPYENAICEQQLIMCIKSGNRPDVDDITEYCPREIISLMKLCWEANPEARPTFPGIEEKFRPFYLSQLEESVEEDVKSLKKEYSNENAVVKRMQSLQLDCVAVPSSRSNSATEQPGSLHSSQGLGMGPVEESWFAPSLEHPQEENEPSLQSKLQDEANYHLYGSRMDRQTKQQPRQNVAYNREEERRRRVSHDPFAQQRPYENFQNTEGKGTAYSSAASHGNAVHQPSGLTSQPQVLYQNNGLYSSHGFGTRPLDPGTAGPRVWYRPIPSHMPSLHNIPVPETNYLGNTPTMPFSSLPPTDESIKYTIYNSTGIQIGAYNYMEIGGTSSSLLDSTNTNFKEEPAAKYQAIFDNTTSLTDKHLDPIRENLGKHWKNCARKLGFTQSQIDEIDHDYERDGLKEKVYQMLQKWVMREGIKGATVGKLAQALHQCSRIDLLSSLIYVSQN
Sequence of RIP3 (Q9Y572 whole entry): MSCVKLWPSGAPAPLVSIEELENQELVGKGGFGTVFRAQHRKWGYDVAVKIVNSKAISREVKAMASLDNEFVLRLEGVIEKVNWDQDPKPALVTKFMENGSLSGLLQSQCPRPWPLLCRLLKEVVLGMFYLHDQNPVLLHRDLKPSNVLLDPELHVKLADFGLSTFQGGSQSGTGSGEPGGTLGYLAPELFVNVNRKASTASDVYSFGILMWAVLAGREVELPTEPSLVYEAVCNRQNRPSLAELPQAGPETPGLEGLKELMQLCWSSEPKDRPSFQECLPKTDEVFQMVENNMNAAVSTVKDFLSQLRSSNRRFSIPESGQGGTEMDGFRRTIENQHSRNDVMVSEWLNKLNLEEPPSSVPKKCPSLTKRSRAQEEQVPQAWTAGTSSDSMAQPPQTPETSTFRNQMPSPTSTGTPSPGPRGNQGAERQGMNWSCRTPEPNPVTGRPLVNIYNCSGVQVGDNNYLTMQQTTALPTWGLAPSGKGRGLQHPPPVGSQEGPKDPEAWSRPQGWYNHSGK

For orientation: pKd means the Kd on a negative log10 scale, so that one unit is a factor of ten. Higher therefore signals a low Kd. In the case of `NC(=O)c1c(-c2ccc(NS(=O)(=O)C(F)F)c(OC3(c4ccc(F)cc4)CC3)c2)n[nH]c1Nc1cnccn1` [Compound 307, 3-(4-((difluoromethyl)sulfonamido)-3-(1-(4-fluorophenyl)cyclopropoxy)phenyl)-5-(pyrazin-2-ylamino)-1H-pyrazole-4-carboxamide], the pKd on RIP1 is less than 4.52; at RIP3 it was less than 4.52; on MLKL (full length), greater than 8.00.
Turning to `C[C@H](Oc1cc(-c2n[nH]c(Nc3cc4n(n3)CCOC4)c2C(N)=O)ccc1NS(=O)(=O)C(F)F)c1ccc(F)cc1` [Compound 308, (S)-3-(4-((difluoromethyl)sulfonamido)-3-(1-(4-fluorophenyl)ethoxy)phenyl)-5-((6,7-dihydro-4H-pyrazolo[5,1-c][1,4]oxazin-2-yl)amino)-1H-pyrazole-4-carboxamide], the figures for the negative-log Kd (pKd) on RIP1, on RIP3 and on MLKL (full length) were less than 4.52, less than 4.52 and greater than 8.00, respectively.
As to `Cc1nccc(Nc2[nH]nc(-c3ccc(NS(=O)(=O)C(F)F)c(O[C@@H](C)c4ccc(F)cc4)c3)c2C(N)=O)n1` [Compound 309, (S)-3-(4-((difluoromethyl)sulfonamido)-3-(1-(4-fluorophenyl)ethoxy)phenyl)-5-((2-methylpyrimidin-4-yl)amino)-1H-pyrazole-4-carboxamide], the pKd was less than 4.52 on RIP1, less than 4.52 at RIP3 and greater than 8.00 at MLKL (full length).
`C[C@H](Oc1cc(-c2n[nH]c(Nc3cnc(C(C)(C)C)cn3)c2C(N)=O)ccc1NS(=O)(=O)C(F)F)c1ccc(F)cc1` [Compound 312, (S)-5-((5-(tert-butyl)pyrazin-2-yl)amino)-3-(4-((difluoromethyl)sulfonamido)-3-(1-(4-fluorophenyl)ethoxy)phenyl)-1H-pyrazole-4-carboxamide]: the values for the pKd on RIP1, on RIP3 and on MLKL (full length) were less than 4.52, less than 4.52 and greater than 8.00, respectively.
In the case of `NC(=O)c1c(-c2ccc(NS(=O)(=O)C(F)F)c(OCc3ncco3)c2)n[nH]c1Nc1cnccn1` [Compound 313, 3-(4-((difluoromethyl)sulfonamido)-3-(oxazol-2-ylmethoxy)phenyl)-5-(pyrazin-2-ylamino)-1H-pyrazole-4-carboxamide], the pKd was less than 4.52 at RIP1, less than 4.52 at RIP3 and greater than 8.00 at MLKL (full length).
`C[C@H](Oc1cc(-c2n[nH]c(Nc3cc(C(F)F)on3)c2C(N)=O)ccc1NS(=O)(=O)C(F)F)c1ccc(F)cc1` [Compound 314, (S)-5-((5-(difluoromethyl)isoxazol-3-yl)amino)-3-(4-((difluoromethyl)sulfonamido)-3-(1-(4-fluorophenyl)ethoxy)phenyl)-1H-pyrazole-4-carboxamide]: the pKd on RIP1 was less than 4.52; on RIP3 it was less than 4.52; at MLKL (full length), greater than 8.00.
Consider `CCS(=O)(=O)Nc1ccc(-c2n[nH]c(Nc3ccc(C(=O)O)cn3)c2C(N)=O)cc1O[C@@H](C)c1ccc(F)cc1` [Compound 315, (S)-6-((4-carbamoyl-3-(4-(ethylsulfonamido)-3-(1-(4-fluorophenyl)ethoxy)phenyl)-1H-pyrazol-5-yl)amino)nicotinic acid], for which the negative logarithm of the Kd (pKd) at RIP1 is less than 4.52; at RIP3, less than 4.52; on MLKL (full length) it was greater than 8.00.
Turning to `C[C@H](Oc1cc(-c2n[nH]c(Nc3cnc(C4CC4)cn3)c2C(N)=O)ccc1NS(=O)(=O)C(F)F)c1ccc(F)cc1` [Compound 316, (S)-5-((5-cyclopropylpyrazin-2-yl)amino)-3-(4-((difluoromethyl)sulfonamido)-3-(1-(4-fluorophenyl)ethoxy)phenyl)-1H-pyrazole-4-carboxamide], the negative logarithm of the Kd (pKd) on RIP1 is less than 4.52; on RIP3, less than 4.52; at MLKL (full length), greater than 8.00.
Regarding `CCS(=O)(=O)Nc1ccc(-c2n[nH]c(Nc3cc(C)on3)c2C(N)=O)cc1O[C@@H](C)c1ccc(F)cc1` [Compound 317, (S)-3-(4-(ethylsulfonamido)-3-(1-(4-fluorophenyl)ethoxy)phenyl)-5-((5-methylisoxazol-3-yl)amino)-1H-pyrazole-4-carboxamide], the negative-log Kd (pKd) on RIP1 was less than 4.52; on RIP3, less than 4.52; on MLKL (full length), greater than 8.00.
For the compound `C[C@H](Oc1cc(-c2n[nH]c(Nc3cc4n(n3)CCCN(C)C4)c2C(N)=O)ccc1NS(=O)(=O)C(F)F)c1ccc(F)cc1` [Compound 318, (S)-3-(4-((difluoromethyl)sulfonamido)-3-(1-(4-fluorophenyl)ethoxy)phenyl)-5-((5-methyl-5,6,7,8-tetrahydro-4H-pyrazolo[1,5-a][1,4]diazepin-2-yl)amino)-1H-pyrazole-4-carboxamide], the negative logarithm of the Kd (pKd) at RIP1 is less than 4.52; at RIP3, less than 4.52; on MLKL (full length), greater than 8.00.
For the compound `COCC(Oc1cc(-c2n[nH]c(Nc3cnccn3)c2C(N)=O)ccc1NS(=O)(=O)C(F)F)c1ccc(F)cc1` (stereo not shown) [Compound 319, 3-(4-((difluoromethyl)sulfonamido)-3-(1-(4-fluorophenyl)-2-methoxyethoxy)phenyl)-5-(pyrazin-2-ylamino)-1H-pyrazole-4-carboxamide], the pKd on RIP1 was less than 4.52; at RIP3, less than 4.52; on MLKL (full length), greater than 8.00.
With `Cc1cc(Nc2c(C(N)=O)c(-c3ccc(NS(=O)(=O)C(F)F)c(O[C@@H](C)c4ccc(F)cc4)c3)nn2C)no1` [Compound 320, (S)-3-(4-((difluoromethyl)sulfonamido)-3-(1-(4-fluorophenyl)ethoxy)phenyl)-1-methyl-5-((5-methylisoxazol-3-yl)amino)-1H-pyrazole-4-carboxamide], the negative-log Kd (pKd) was less than 4.52 at RIP1, less than 4.52 at RIP3 and greater than 8.00 on MLKL (full length).
As a reminder, the pIC50 is the negative decadic logarithm of the IC50, by convention in mol/L. For the compound `CCS(=O)(=O)Nc1ccc(-c2n[nH]c(Nc3ccnc(OCCOCCOCCOCCNC(=O)COc4cccc5c4C(=O)N(C4CCC(=O)NC4=O)C5=O)c3)c2C(N)=O)cc1` (stereo not shown) [Compound 1002, 5-({2-[2-(2-{2-[2-(2-{[2-(2,6-dioxopiperidin-3-yl)-1,3-dioxo-2,3-dihydro-1H-isoindol-4-yl]oxy}acetamido)ethoxy]ethoxy}ethoxy)ethoxy]pyridin-4-yl}amino)-3-(4-ethanesulfonamidophenyl)-1H-pyrazole-4-carboxamide], the negative-log IC50 (pIC50) (with U937 cells; in assay [1]) was less than 5.00 in each case.
For the compound `CCS(=O)(=O)Nc1ccc(-c2n[nH]c(Nc3ccnc(OCCOCCNC(=O)COc4cccc5c4C(=O)N(C4CCC(=O)NC4=O)C5=O)c3)c2C(N)=O)cc1` (stereo not shown) [Compound 1003, 5-((2-(2-(2-(2-((2-(2,6-dioxopiperidin-3-yl)-1,3-dioxoisoindolin-4-yl)oxy)acetamido)ethoxy)ethoxy)pyridin-4-yl)amino)-3-(4-(ethylsulfonamido)phenyl)-1H-pyrazole-4-carboxamide], the pIC50 (with U937 cells; in assay [1]) was less than 5.00 throughout.
Consider `CCS(=O)(=O)Nc1ccc(-c2n[nH]c(Nc3ccn(C)n3)c2C(N)=O)cc1` [compound 91, 3-(4-(ethyl-sulfonamido)phenyl)-5-((1-methyl-1H-pyrazol-3-yl)amino)-1H-pyrazole-4-carboxamide], for which the pKd was less than 4.52 at RIP1, less than 4.52 on RIP3 and greater than 8.00 at MLKL (full length).
